This passage reports IC50 and inhibition results from US20200171030A1, “DUAL INHIBITORS OF ALK5 AND P38A MAP KINASE” (INTEGRAL BIOSCIENCES PRIVATE LIMITED, priority 2018, published 2020).

Structures are written as SMILES. Counter-ions that a name gives are not always drawn.

For one test, the system named is MIA PaCa-2. Kind of test: Cell viability assay (resazurin, 96 hr) in MIA PaCa-2. It counts as cell-based. The conditions noted are these: Homo sapiens; MIA PaCa-2 pancreatic cell line, 96 hr exposure; read-out: MiaPaCa-2_Cell Viability_IC50. How it is done:
(§1) Cell Viability Assay in MIA PaCa-2 and Panc-1
(§2) MIA PaCa-2 (ATCC® CRL-1420™) and Panc-1 (CRL-1469™), both pancreatic cell lines were seeded in their respective medium (DMEM, Cat #10569044 with 10% FBS, Cat #16000044; Gibco for Panc-1 and an additional 2.5% Horse Serum, Cat #16050122; Gibco for MIA PaCa-2) at a cell count of 3000 cells per 100 μl per well in a 96 well edge plate (167425; ThermoFisher). Cells were allowed to grow at 37° C. for 24 hr in 5% CO2 (culture conditions) in a Nuaire incubator (humidified). Serially diluted compounds (100 μl) were added to the culture plate 24 hr later and the cultures (MIA PaCa-2 and Panc-1) were further incubated in culture conditions for 96 hr. Experiment was terminated at the completion of 96 hr exposure to the drug by replacing the medium with 100 μl of 1 mM of resazurin (R7017; Sigma) prepared in culture medium and the plates were further incubated in culture conditions for 4 hr. Fluorescence was then measured using a multimodal plate reader (Biotek Synergy Neo) at an excitation wavelength of 535 nm and emission wavelength of 590 nm to obtain relative fluorescence units. Data analysis was done by subtracting the background fluorescence (only medium blank) value from each reading and then normalizing with the vehicle control (DMSO treated cells) to obtain percent survival/proliferation. Percent survival at different doses was used to calculate IC50 by fitting the curve to the “four-parameter variable slope logistic model” using Prism Graph Pad.
(In general: Resazurin is reduced to fluorescent resorufin, in cell work by metabolically active cells.)

The test system of the next test is Panc-1. Kind of test: Cell viability assay (resazurin, 96 hr) in Panc-1. Type of test: cell-based. The conditions noted are these: Homo sapiens; Panc-1 pancreatic cell line, 96 hr exposure; read-out: Panc-1_Cell Viability_IC50. The method, then: as §1, §2
A further test concerns the target T1, MAPK14/p38α kinase (Homo sapiens, UniProt Q16539).
T1 construct: purchased ThermoFisher PV3304
Kind of test: MAPK14/p38α kinase assay (LanthaScreen TR-FRET). The conditions noted are these: 100 nM concentration of compound; read-out: Enzyme Activity MAPK14 (p38 alpha) % Inhibition at 100 nM. It counts as biochemical. How it is done:
MAPK14/p38α Kinase Assay for IC50 Determination:
IC50 values of compounds against MAPK14/P38α kinase were determined by Lanthascreen based TR-FRET assay. Kinase reactions were performed in a 10 μL volume in low-volume 384-well plates. The concentration of substrate was maintained at 400 nM in the assay, and the kinase reaction buffer (1×; Cat # PV3189, ThermoFisher) consisted of 50 mM HEPES pH 7.5, 0.01% BRIJ-35, 10 mM MgCl2, and 1 mM EGTA. Serially diluted compounds (3-fold) in DMSO (0.5% in final reaction) were incubated with cocktail of MAPK14/p38α kinase (20 ng/ml; Cat # PV3304, ThermoFisher), Substrate GFP-ATF2 (19-96), (0.4 μM; Cat # PV4445, ThermoFisher), ATP (90 μM; Cat # PV3227, ThermoFisher) and buffer. Kinase reactions were allowed to proceed for 1 hour at room temperature before EDTA (10 mM; Cat # P2825, ThermoFisher) and LanthaScreen™ Tb-antipATF2 (pThr71) Antibody (2 nM; Cat # PV4451, ThermoFisher) in TR-FRET dilution buffer (IX; Cat # PV3574, ThermoFisher) were added. The plate was allowed to incubate at room temperature for 30 minutes before being read on a BMG Pherastar plate reader using the LanthaScreen™ filter block for LanthaScreen™ TR-FRET.
The resulting TR-FRET emission ratio was plotted against the concentration of inhibitor, and the data was fit to a sigmoidal dose-response curve with a variable slope. The IC50 for the inhibitor was calculated from the curve.
(TR-FRET usually uses a lanthanide donor and a delayed reading to cut background.)

Another test concerns the target T2, TGFBR1 (ALK5) (Homo sapiens, UniProt P36897).
T2 sequence (P36897 34-503): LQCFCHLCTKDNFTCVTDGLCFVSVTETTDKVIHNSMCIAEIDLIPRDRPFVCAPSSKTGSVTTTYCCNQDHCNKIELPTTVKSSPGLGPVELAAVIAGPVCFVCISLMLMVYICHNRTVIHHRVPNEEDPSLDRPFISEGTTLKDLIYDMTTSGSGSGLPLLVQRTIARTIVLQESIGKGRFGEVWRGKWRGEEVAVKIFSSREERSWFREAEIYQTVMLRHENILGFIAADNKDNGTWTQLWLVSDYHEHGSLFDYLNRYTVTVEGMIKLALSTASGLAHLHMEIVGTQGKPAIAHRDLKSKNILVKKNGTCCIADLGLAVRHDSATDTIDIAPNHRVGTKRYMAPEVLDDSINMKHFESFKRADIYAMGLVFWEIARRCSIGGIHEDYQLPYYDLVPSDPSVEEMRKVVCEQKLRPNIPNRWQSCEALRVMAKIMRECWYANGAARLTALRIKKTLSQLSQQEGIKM
Kind of test: ALK5 kinase assay (LanthaScreen Terbium labeled TR-FRET). Type of test: biochemical. The following applies: for inhibition at 0.1 µM: 100 nM concentration of compound, read-out: Enzyme Activity TGFBR1 (ALK5) % Inhibition at 100 nM; for IC50: Table 5, read-out: ALK5 IC50. How it is done: ALK5 Kinase Assay for IC50 Determination:
IC50 values of compounds against TGFβ kinase was determined by LanthaScreen™ Terbium Labeled TR-FRET assay. Kinase assays were performed in IX kinase buffer (# PV6135, Invitrogen, Life Technologies Grand Island, N.Y.) where total reaction volume was 10 μL in low-volume 384-well plates (#4511,Corning). Serially diluted compounds (3-fold) were incubated with TGFβ kinase (6 nM) for 10 min, following which a mixture of ATP (10 μM) (# A1852, Sigma, St-Louis, Mo.) and fluorescent-PolyGT substrate (200 nM) (# PV3610, Invitrogen, Life Technologies Grand Island, N.Y.) was added and incubated in dark at room temperature for 1 h. After 1 h, 10 μL stop solution containing Terbium labeled antibody (4 nM) (# PV3529, Invitrogen, Life Technologies Grand Island, N.Y.) and EDTA (# E5134, Sigma, St-Louis, Mo.) (20 mM) in TR-FRET dilution buffer (# PV3574, Invitrogen, Life Technologies Grand Island, N.Y.) was added. Readings were taken in a Synergy Neo Plate reader (BioTek, Winooski) at single excitation of 340 nm and Dual emission at 495 nm and 520 nm respectively.
The % activity of test samples was calculated as (Sample−Min)×100/(Max−Min). [Max: DMSO control, complete reaction with enzyme with DMSO and Min: No enzyme with DMSO]. Percent inhibition (100-% activity) was fitted to the “four-parameter logistic model” in XLfit for determination of IC50 values.

T1 sequence (Q16539 whole entry): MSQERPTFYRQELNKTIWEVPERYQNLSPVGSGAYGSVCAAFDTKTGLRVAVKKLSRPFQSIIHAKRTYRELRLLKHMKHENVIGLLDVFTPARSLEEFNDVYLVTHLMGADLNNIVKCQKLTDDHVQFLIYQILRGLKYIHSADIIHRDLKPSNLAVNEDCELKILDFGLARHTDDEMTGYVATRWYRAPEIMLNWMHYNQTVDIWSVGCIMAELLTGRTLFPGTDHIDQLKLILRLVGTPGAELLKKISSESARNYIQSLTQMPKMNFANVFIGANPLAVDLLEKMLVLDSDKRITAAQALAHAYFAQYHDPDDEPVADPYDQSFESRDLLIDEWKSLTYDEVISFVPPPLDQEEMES

Consider `CC(C)c1cnc(-c2ccc(F)cc2)nc1Nc1ccnc2[nH]cc(N3CCNCC3)c12` [Compound No. 1, N-(2-(4-fluorophenyl)-5-isopropylpyrimidin-4-yl)-3-(piperazin-1-yl)-1H-pyrrolo [2,3-b] pyridin-4-amine hydrochloride], for which the IC50 with MIA PaCa-2 amounted to 1.63 µM; in the test on Panc-1 it was 2.31 µM. In addition, the inhibition at 0.1 µM amounted to 61% on MAPK14/p38α kinase and 99% on TGFBR1 (ALK5).

Regarding `CC(C)c1cnc(-c2ccc(F)cc2)nc1Nc1ccnc2[nH]cc(N3CCN(C)CC3)c12` [Compound No. 2, N-(2-(4-fluorophenyl)-5-isopropylpyrimidin-4-yl)-3-(4-methylpiperazin-1-yl)-1H-pyrrolo [2,3-b] pyridin-4-amine hydrochloride], the figures for the IC50 with MIA PaCa-2 and with Panc-1 were 7.7 µM and 2.21 µM, respectively. Moreover, the inhibition at 0.1 µM at MAPK14/p38α kinase stood at 19%; on TGFBR1 (ALK5) it was 84%.

For `CC(C)c1cnc(-c2ccc(F)cc2)nc1Nc1ccnc2[nH]cc(N3CCCCC3)c12` [Compound No. 3, N-(2-(4-fluorophenyl)-5-isopropylpyrimidin-4-yl)-3-(piperidin-1-yl)-1H-pyrrolo [2,3-b] pyridin-4-amine hydrochloride], the IC50 is greater than 30 µM in the test on MIA PaCa-2 and greater than 27 µM in the test on Panc-1. Also, the values for the inhibition at 0.1 µM at MAPK14/p38α kinase and on TGFBR1 (ALK5) were 42% and 72%, respectively.

Take `CC(C)c1cnc(-c2ccc(F)cc2)nc1Nc1ccnc2[nH]cc(C3(O)CCNCC3)c12` [Compound No. 13, 4-(4-((2-(4-fluorophenyl)-5-isopropylpyrimidin-4-yl)amino)-1H-pyrrolo[2,3-b]pyridin-3-yl)piperidin-4-ol hydrochloride]: the IC50 with MIA PaCa-2 was found to be 10.9 µM; in the test on Panc-1, 17.9 µM; at TGFBR1 (ALK5), 108 nM.

With `CC(C)c1cnc(-c2ccc(F)cc2)nc1Nc1ccnc2[nH]cc(N3CCOCC3C)c12` (stereo not drawn) [Compound No. 14, N-(2-(4-fluorophenyl)-5-isopropylpyrimidin-4-yl)-3-(3-methylmorpholino)-1H-pyrrolo [2,3-b] pyridin-4-amine hydrochloride], the IC50 with MIA PaCa-2 is 11.1 µM; with Panc-1, 11.2 µM; at TGFBR1 (ALK5), 3710 nM.

For the molecule `CC(C)c1cnc(-c2ccc(F)cc2)nc1Nc1ccnc2[nH]cc(N3CCC(N)CC3)c12` [Compound No. 15, 3-(4-aminopiperidin-1-yl)-N-(2-(4-fluorophenyl)-5-isopropylpyrimidin-4-yl)-1H-pyrrolo[2,3-b]pyridin-4-amine hydrochloride], the IC50 was 5.5 µM in the test with MIA PaCa-2, 2.96 µM with Panc-1 and 245 nM at TGFBR1 (ALK5).

With `CC(C)c1cnc(-c2ccc(F)cc2)nc1Nc1ccnc2[nH]cc(C(=O)C(=O)N(C)C)c12` [Compound No. 16, 2-(4-((2-(4-fluorophenyl)-5-isopropylpyrimidin-4-yl)amino)-1H-pyrrolo[2,3-b]pyridin-3-yl)-N,N-dimethyl-2-oxoacetamide], the IC50 in the test with MIA PaCa-2 is 10.2 µM; in the test on Panc-1, 17.1 µM; at TGFBR1 (ALK5), 1920 nM.

As for `CCCCNC(=O)C(=O)c1c[nH]c2nccc(Nc3nc(-c4ccc(F)cc4)ncc3C(C)C)c12` [Compound No. 20, N-butyl-2-(4-(2-(4-fluorophenyl)-5-isopropylpyrimidin-4-ylamino)-1H-pyrrolo [2,3-b]pyridin-3-yl)-2-oxoacetamide hydrochloride], the values for the IC50 with MIA PaCa-2, in the test with Panc-1 and on TGFBR1 (ALK5) were greater than 30 µM, greater than 30 µM and greater than 5000 nM, respectively.

Take `CNC(=O)C(=O)c1c[nH]c2nccc(Nc3cc(-c4ccc(F)cc4)ncc3C(C)C)c12` [Compound No. 21, 2-(4-((2-(4-fluorophenyl)-5-isopropylpyridin-4-yl)amino)-1H-pyrrolo[2,3-b]pyridin-3-yl)-N-methyl-2-oxoacetamide hydrochloride]: the figures for the IC50 with MIA PaCa-2, in the test on Panc-1 and at TGFBR1 (ALK5) were 10.7 µM, 12.7 µM and 574 nM, respectively.

Take `CC(C)c1cnc(-c2ccc(F)cc2)nc1Nc1ccnc2[nH]cc(C(=O)C(=O)N3CCOCC3)c12` [Compound No. 22, 1-(4-(2-(4-fluorophenyl)-5-isopropylpyrimidin-4-ylamino)-1H-pyrrolo [2,3-b]pyridin-3-yl)-2-morpholinoethane-1,2-dione hydrochloride]: the values for the IC50 in the test with MIA PaCa-2, in the test with Panc-1 and at TGFBR1 (ALK5) were greater than 30 µM, 14.2 µM and 3950 nM, respectively.

Consider `CC(C)c1cnc(-c2ccc(F)cc2)nc1Nc1ccnc2[nH]cc(C(=O)C(=O)N3CCN(C)CC3)c12` [Compound No. 24, 1-(4-(2-(4-fluorophenyl)-5-isopropylpyrimidin-4-ylamino)-1H-pyrrolo [2,3-b]pyridin-3-yl)-2-(4-methylpiperazin-1-yl) ethane-1,2-dione hydrochloride], for which the IC50 in the test with MIA PaCa-2 was 0.77 µM; in the test with Panc-1, greater than 30 µM; at TGFBR1 (ALK5), 1500 nM.

With `COc1ccc(-c2ncc(C(C)C)c(Nc3ccnc4[nH]cc(C(=O)C(N)=O)c34)n2)cc1` [Compound No. 25, 2-(4-((5-isopropyl-2-(4-methoxyphenyl)pyrimidin-4-yl)amino)-1H-pyrrolo[2,3-b]pyridin-3-yl)-2-oxoacetamide hydrochloride], the figures for the IC50 in the test on MIA PaCa-2, in the test on Panc-1 and on TGFBR1 (ALK5) were greater than 30 µM, greater than 30 µM and 2570 nM, respectively.

With `CNC(=O)C(=O)c1c[nH]c2nccc(Nc3nc(-c4ccc(F)cc4)ncc3C(C)C)c12` [Compound No. 29, 2-(4-((2-(4-fluorophenyl)-5-isopropylpyrimidin-4-yl)amino)-1H-pyrrolo[2,3-b]pyridin-3-yl)-N-methyl-2-oxoacetamide hydrochloride], the IC50 stood at 23 µM in the test with MIA PaCa-2, 26 µM in the test on Panc-1 and 2770 nM on TGFBR1 (ALK5).

The term inhibition denotes the drop in the measured response relative to a control, in per cent.
